Measured values taken from US11851426B2, “Bicyclic amines as CDK2 inhibitors” (Incyte Corporation, priority 2019, dated 2023).

Target: CDK2/Cyclin E1 (Homo sapiens (Human), UniProt P24941)
Assay: CDK2/Cyclin E1 HTRF enzyme activity assay
Type: biochemical
Conditions: 1 mM ATP; CDK2/Cyclin E1 0.25 nM; 60 minutes at room temperature
Outline: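 Full-length GST-CDK2 co-expressed with FLAG-Cyclin E1 (baculovirus), 0.25 nM, reacted with 50 nM ULight-4E-BP1 (Thr37/46) peptide at 50 μM or 1 mM ATP in HEPES pH 7.5 buffer, 60 min, room temperature. EDTA plus Eu-anti-phospho-4E-BP1 antibody stopped the reaction; HTRF read after 1 h; IC50 from three- or four-parameter fits.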

| SMILES | IC50 [nM] |
| --- | --- |
| CCOc1c(-c2cn[nH]c2)ccn2nc(N[C@H]3CCN(S(=O)(=O)CCCN4CCCC4)C[C@H]3C)nc12 [Example 29, 8-ethoxy-N-((3R,4S)-3-methyl-1-((3-(pyrrolidin-1-yl)propyl)sulfonyl)piperidin-4-yl)-7-(1H-pyrazol-4-yl)-[1,2,4]triazolo[1,5-a]pyridin-2-amine] | ≤ 20 |
| CC(C)COc1c(-c2cn[nH]c2)ncc2nc(N[C@H]3CCN(S(C)(=O)=O)C[C@H]3C)nn12 [Example 101, 5-Isobutoxy-N-((3R,4S)-3-methyl-1-(methylsulfonyl)piperidin-4-yl)-6-(1H-pyrazol-4-yl)-[1,2,4]triazolo[1,5-a]pyrazin-2-amine] | ≤ 20 |
| CS(=O)(=O)N1CCC(Nc2nc3c(OCC(F)F)c(-c4cn[nH]c4)ccn3n2)CC1 [Example 9, 8-(2,2-difluoroethoxy)-N-(1-(methylsulfonyl)piperidin-4-yl)-7-(1H-pyrazol-4-yl)-[1,2,4]triazolo[1,5-a]pyridin-2-amine] | ≤ 20 |
| C[C@@H]1CN(S(C)(=O)=O)CC[C@@H]1Nc1nc2cnc(-c3cn[nH]c3)c(N3CCCC(F)(F)C3)n2n1 [Example 127, 5-(3,3-Difluoropiperidin-1-yl)-N-((3R,4S)-3-methyl-1-(methylsulfonyl)piperidin-4-yl)-6-(1H-pyrazol-4-yl)-[1,2,4]triazolo[1,5-a]pyrazin-2-amine] | ≤ 20 |
| CC(C)Oc1c(-c2cn[nH]c2)ncn2nc(N[C@H]3CCN(S(=O)(=O)CCCCNCC(F)F)C[C@H]3C)nc12 [Example 64, N-((3R,4S)-1-((4-((2,2-Difluoroethyl)amino)butyl)sulfonyl)-3-methylpiperidin-4-yl)-8-isopropoxy-7-(1H-pyrazol-4-yl)-[1,2,4]triazolo[1,5-c]pyrimidin-2-amine] | ≤ 20 |
| CS(=O)(=O)N1CCC(Nc2nc3c(-c4cccc(C(F)(F)F)c4)c(-c4cn[nH]c4)ccn3n2)CC1 [Example 26, N-(1-(methylsulfonyl)piperidin-4-yl)-7-(1H-pyrazol-4-yl)-8-(3-(trifluoromethyl)phenyl)-[1,2,4]triazolo[1,5-a]pyridin-2-amine] | ≤ 20 |
| CS(=O)(=O)N1CCC(Nc2nc3cnc(-c4cn[nH]c4)c(OC4CCC4)n3n2)CC1 [Example 117, 5-Cyclobutoxy-N-(1-(methylsulfonyl)piperidin-4-yl)-6-(1H-pyrazol-4-yl)-[1,2,4]triazolo[1,5-a]pyrazin-2-amine] | ≤ 20 |
| C[C@@H]1CN(S(C)(=O)=O)CC[C@@H]1Nc1nc2cnc(-c3cn[nH]c3)c(OC3CCCC3)n2n1 [Example 140, 5-(Cyclopentyloxy)-N-((3R,4S)-3-methyl-1-(methylsulfonyl)piperidin-4-yl)-6-(1H-pyrazol-4-yl)-[1,2,4]triazolo[1,5-a]pyrazin-2-amine] | ≤ 20 |
| C[C@@H]1CN(S(=O)(=O)c2cn(C)cn2)CC[C@@H]1Nc1nc2cnc(-c3cn[nH]c3)c(OC3CCC3)n2n1 [Example 95, 5-Cyclobutoxy-N-((3R,4S)-3-methyl-1-((1-methyl-1H-imidazol-4-yl)sulfonyl)piperidin-4-yl)-6-(1H-pyrazol-4-yl)-[1,2,4]triazolo[1,5-a]pyrazin-2-amine] | ≤ 20 |
| CS(=O)(=O)N1CCC(Nc2nc3cnc(-c4cn[nH]c4)c(N4CCC[C@H](F)C4)n3n2)CC1 [Example 129, (S)-5-(3-Fluoropiperidin-1-yl)-N-(1-(methylsulfonyl)piperidin-4-yl)-6-(1H-pyrazol-4-yl)-[1,2,4]triazolo[1,5-a]pyrazin-2-amine] | ≤ 20 |
| CS(=O)(=O)N1CCC(Nc2nc3c(-c4cccc(C(F)(F)F)c4)c(-c4cn[nH]c4)ncn3n2)CC1 [Example 35, N-(1-(methylsulfonyl)piperidin-4-yl)-7-(1H-pyrazol-4-yl)-8-(3-(trifluoromethyl)phenyl)-[1,2,4]triazolo[1,5-c]pyrimidin-2-amine] | ≤ 20 |
| CS(=O)(=O)N1CCC(Nc2nc3cnc(-c4cn[nH]c4)c(N4C5CCC4CC5)n3n2)CC1 [Example 135, 5-(7-Azabicyclo[2.2.1]heptan-7-yl)-N-(1-(methylsulfonyl)piperidin-4-yl)-6-(1H-pyrazol-4-yl)-[1,2,4]triazolo[1,5-a]pyrazin-2-amine] | ≤ 20 |
| CC(C)Oc1c(-c2cn[nH]c2)ncn2nc(N[C@H]3CCN(S(=O)(=O)CCCCN4CC[C@@H](C(F)F)C4)C[C@H]3C)nc12 [Example 67, N-((3R,4S)-1-((4-((R)-3-(Difluoromethyl)pyrrolidin-1-yl)butyl)sulfonyl)-3-methylpiperidin-4-yl)-8-isopropoxy-7-(1H-pyrazol-4-yl)-[1,2,4]triazolo[1,5-c]pyrimidin-2-amine] | ≤ 20 |
| CCOc1c(-c2cn[nH]c2)ccn2nc(N[C@H]3CCN(S(=O)(=O)CCN4CC[C@@H](O)C4)C[C@H]3C)nc12 [Example 19, (R)-1-(2-(((3R,4S)-4-((8-ethoxy-7-(1H-pyrazol-4-yl)-[1,2,4]triazolo[1,5-a]pyridin-2-yl)amino)-3-methylpiperidin-1-yl)sulfonyl)ethyl)pyrrolidin-3-ol] | ≤ 20 |
| CS(=O)(=O)N1CCC(Nc2nc3cnc(-c4cn[nH]c4)c(OC4CC(F)(F)C4)n3n2)CC1 [Example 118, 5-(3,3-Difluorocyclobutoxy)-N-(1-(methylsulfonyl)piperidin-4-yl)-6-(1H-pyrazol-4-yl)-[1,2,4]triazolo[1,5-a]pyrazin-2-amine] | ≤ 20 |
| CC(C)Oc1c(-c2cn[nH]c2)ncn2nc(N[C@H]3CCN(S(C)(=O)=O)C[C@H]3C)nc12 [Example 33, 8-isopropoxy-N-((3R,4S)-3-methyl-1-(methylsulfonyl)piperidin-4-yl)-7-(1H-pyrazol-4-yl)-[1,2,4]triazolo[1,5-c]pyrimidin-2-amine] | ≤ 20 |
| CS(=O)(=O)N1CCC(Nc2nc3c(-c4ccc(C#N)c(F)c4)c(-c4cn[nH]c4)ncn3n2)CC1 [Example 36, 2-fluoro-4-(2-((1-(methylsulfonyl)piperidin-4-yl)amino)-7-(1H-pyrazol-4-yl)-[1,2,4]triazolo[1,5-c]pyrimidin-8-yl)benzonitrile] | ≤ 20 |
| C[C@@H]1CN(S(C)(=O)=O)CC[C@@H]1Nc1nc2cnc(-c3cn[nH]c3)c(OC3CCC(F)(F)CC3)n2n1 [Example 110, 5-((4,4-Difluorocyclohexyl)oxy)-N-((3R,4S)-3-methyl-1-(methylsulfonyl)piperidin-4-yl)-6-(1H-pyrazol-4-yl)-[1,2,4]triazolo[1,5-a]pyrazin-2-amine] | ≤ 20 |
| C[C@H]1CCCCN1c1c(-c2cn[nH]c2)ncc2nc(NC3CCN(S(C)(=O)=O)CC3)nn12 [Example 132, (A)-5-(2-Methylpiperidin-1-yl)-N-(1-(methylsulfonyl)piperidin-4-yl)-6-(1H-pyrazol-4-yl)-[1,2,4]triazolo[1,5-a]pyrazin-2-amine] | ≤ 20 |
| CS(=O)(=O)N1CCC(Nc2nc3c(-c4ccccc4)c(-c4cn[nH]c4)ccn3n2)CC1 [Example 22, N-(1-(methylsulfonyl)piperidin-4-yl)-8-phenyl-7-(1H-pyrazol-4-yl)-[1,2,4]triazolo[1,5-a]pyridin-2-amine] | ≤ 20 |
| CC(C)CCOc1c(-c2cn[nH]c2)ncc2nc(N[C@H]3CCN(S(C)(=O)=O)C[C@H]3C)nn12 [Example 116, 5-(Isopentyloxy)-N-((3R,4S)-3-methyl-1-(methylsulfonyl)piperidin-4-yl)-6-(1H-pyrazol-4-yl)-[1,2,4]triazolo[1,5-a]pyrazin-2-amine] | ≤ 20 |
| C[C@@H]1CN(S(=O)(=O)c2cnn(C)c2)CC[C@@H]1Nc1nc2ccc(-c3cn[nH]c3)c(OC3CCOCC3)n2n1 [Example 99, N-((3R,4S)-3-Methyl-1-((1-methyl-1H-pyrazol-4-yl)sulfonyl)piperidin-4-yl)-6-(1H-pyrazol-4-yl)-5-((tetrahydro-2H-pyran-4-yl)oxy)-[1,2,4]triazolo[1,5-a]pyridin-2-amine] | ≤ 20 |
| CCS(=O)(=O)N1CC[C@H](Nc2nc3cnc(-c4cn[nH]c4)c(OC4CCC4)n3n2)[C@H](C)C1 [Example 93, 5-Cyclobutoxy-N-((3R,4S)-1-(ethylsulfonyl)-3-methylpiperidin-4-yl)-6-(1H-pyrazol-4-yl)-[1,2,4]triazolo[1,5-a]pyrazin-2-amine] | ≤ 20 |
| CCCOc1c(-c2cn[nH]c2)ncn2nc(NC3CCN(S(C)(=O)=O)CC3)nc12 [Example 48, N-(1-(Methylsulfonyl)piperidin-4-yl)-8-propoxy-7-(1H-pyrazol-4-yl)-[1.2.4]triazolo[1,5-c]pyrimidin-2-amine] | ≤ 20 |
| C[C@@H]1CN(S(C)(=O)=O)CC[C@@H]1Nc1nc2c(OC3CCOCC3)c(-c3cn[nH]c3)ccn2n1 [Example 42, N-((3R,4S)-3-methyl-1-(methylsulfonyl)piperidin-4-yl)-7-(1H-pyrazol-4-yl)-8-((tetrahydro-2H-pyran-4-yl)oxy)-[1,2,4]triazolo[1,5-a]pyridin-2-amine] | ≤ 20 |
| CCN(C)CCCS(=O)(=O)N1CC[C@H](Nc2nc3c(OC(C)C)c(-c4cn[nH]c4)ncn3n2)[C@H](C)C1 [Example 55, N-((3R,4S)-1-((3-(Ethyl(methyl)amino)propyl)sulfonyl)-3-methylpiperidin-4-yl)-8-isopropoxy-7-(1H-pyrazol-4-yl)-[1,2,4]triazolo[1,5-c]pyrimidin-2-amine] | ≤ 20 |
| CC1CC(Oc2c(-c3cn[nH]c3)ncc3nc(N[C@H]4CCN(S(C)(=O)=O)C[C@H]4C)nn23)C1 (stereo partly drawn) [Example 107, N-((3R,4S)-3-Methyl-1-(methylsulfonyl)piperidin-4-yl)-5-(3-methylcyclobutoxy)-6-(1H-pyrazol-4-yl)-[1,2,4]triazolo[1,5-a]pyrazin-2-amine] | ≤ 20 |
| COCCN1CCN(c2c(-c3cn[nH]c3)ncn3nc(NC4CCN(S(C)(=O)=O)CC4)nc23)CC1 [Example 51, 8-(4-(2-Methoxyethyl)piperazin-1-yl)-N-(1-(methylsulfonyl)piperidin-4-yl)-7-(1H-pyrazol-4-yl)-[1,2,4]triazolo[1,5-c]pyrimidin-2-amine] | ≤ 20 |
